The values that follow are results of earlier work, collected in article PMC2211560 (PLoS Medicine, 2008).

Where two headings read alike, the source gives them in different places.

For data set [1] the following is noted: monkeys, cited from earlier work.
For data set [2] the following is noted: rats, cited from earlier work.
For data set [3] the following is noted: rats and monkeys; daily for 14 days or daily for 5 days IV every 2 weeks, 4 courses; cited from earlier work.
A further data set relates to several tumor types. Conditions: Phase I trials; renal cell cancer, soft tissue sarcoma, cervical, endometrial, non-small cell cancer, non-Hodgkins lymphoma; cited from earlier work.
The conditions of data set [4]: cited from earlier work.
Data set [5] relates to cytochrome P450 3A (CYP3A). The note with it: human liver microsomal fractions; cited from earlier work. A general note: Liver microsomes are vesicles of endoplasmic reticulum, rich in cytochrome P450 enzymes.
For data set [6] the following is noted: cited from earlier work. This is another data set of the same source.
The conditions of data set [7]: in vitro or in vivo; cited from earlier work.
Setting [8] is: doses of 0.1-2.5 mg/kg, printed jointly for monkeys and rats.

Broadly, the half-life is the time needed for the level to fall by half in the phase considered. In the case of `CO[C@H]1C[C@@H]2CC[C@@H](C)[C@@](O)(O2)C(=O)C(=O)N2CCCC[C@H]2C(=O)O[C@H]([C@H](C)C[C@@H]2CC[C@@H](OC(=O)C(C)(CO)CO)[C@H](OC)C2)CC(=O)[C@H](C)/C=C(\C)[C@@H](O)[C@@H](OC)C(=O)[C@H](C)C[C@H](C)/C=C/C=C/C=C/1C` [CCI-779], the elimination half life in data set [1] (setting [8]) and in data set [2] (setting [8]) was 8 to 16 h each time. For the same compound, the “volume of distribution (Vdss)” value in data set [1] is 1 to 5 L/kg; in data set [2], 13 to 19 L/kg. Moreover, the life-threatening toxicity entry in data set [3] is “No life-threatening toxicity was observed”. In the data set on several tumor types, the Tumor regression entry was “less than 50%”. Further, the MTD is 15 mg/m^2 in data set [4] (daily x 5 every 2 weeks, heavily pretreated patients); 19.1 mg/m^2 in data set [4] (daily x 5 every 2 weeks, minimally pretreated patients); “has not yet been reached” in data set [4] (weekly schedule, doses 7.5 mg/m^2 to 220 mg/m^2). Moreover, the metabolising enzyme entry in data set [5] is reported as “primarily metabolized by cytochrome P450 3A (CYP3A)”. Besides, in data set [6] (0.75 to 3.12 mg/m^2 daily x 5 schedule), the “blood/plasma (B/P) ratio, mean (range)” value is on record as 9.8 (2.4-20). Moreover, in data set [6] (blood, after CCI-779), the “mean exposure ratio (rapamycin to CCI-779)” value is recorded as ~3.2. The half-life in data set [6] (weekly dosing) is 19.3 h. In addition, the “half-life, range” value in data set [6] (weekly dosing) is 13 to 39 h. In addition, the mean clearance in data set [6] (weekly dosing) was 22 L/h. Moreover, the “volume of distribution at steady state” value in data set [6] (weekly dosing) is recorded as 306 L. For the same compound, in data set [7], the mutagenic effects result is on record as “no mutagenic effects”.
